Results on one cell line are retold here after the supplement of paper PMC10307832.

Holding throughout (assay): relative viability (nuclei count vs DMSO), 5 days (fraction); higher = more cells survive
Compound in the experiment “RAF265 + Phenformin”: Cn1c(Nc2ccc(C(F)(F)F)cc2)nc2cc(Oc3ccnc(-c4ncc(C(F)(F)F)[nH]4)c3)ccc21 [RAF265] + N=C(N)NC(=N)NCCc1ccccc1 [Phenformin] (partner 250 µM)
An outline of the steps: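 Lung cancer cell lines were pin-tool dosed in 1536-well plates on the day after seeding, with either a lone drug or a fixed anchor-drug dose plus five library-drug doses (not always all listed) in √10 steps. Nuclei were counted on 4× images after 5 days. Relative viability is the ratio of treated-well to vehicle-well nuclei counts, with each value a median of duplicate plates.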

Compound in another experiment: Cn1c(Nc2ccc(C(F)(F)F)cc2)nc2cc(Oc3ccnc(-c4ncc(C(F)(F)F)[nH]4)c3)ccc21 [RAF265]
An outline of the steps:
(§1)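 Viability was defined as treated-well nuclei divided by vehicle-well nuclei, with the median taken over replicate plates. Cells from lung cancer lines sat overnight at 37 °C in 1536-well plates, received five √10-spaced library-drug doses by pinning on vehicle-anchored plates, and grew 5 days without medium change before one-step fixation, permeabilisation and Hoechst staining, 4× imaging and MetaXpress nuclear counts. Only plates with control CV under 25% and at least one doubling were kept.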

Compound in another experiment: C1=CC=C2C(=C1)C=CC(=C2SSC3=C(C=CC4=CC=CC=C43)O)O [IPA-3]
An outline of the steps: as §1

Compound in the next experiment: Cc1ccc(-n2nc(C(C)(C)C)cc2NC(=O)Nc2ccc(OCCN3CCOCC3)c3ccccc23)cc1 [Doramapimod]
In a few lines: as §1

With UMC-11, the relative viability turned out to be 0.354 with RAF265 + Phenformin (first compound 0.01 µM); 0.332 in the experiment with RAF265 + Phenformin (first compound 0.03162 µM); 0.32 in the experiment with RAF265 + Phenformin (first compound 0.1 µM); 0.318 in the experiment with RAF265 + Phenformin (first compound 0.3162 µM); 0.259 with RAF265 + Phenformin (first compound 1 µM); 0.975 with RAF265 (0.01 µM). The relative viability with RAF265 (0.03162 µM) was found to be 0.95; with RAF265 (0.1 µM), 0.942; in the experiment with RAF265 (0.3162 µM), 0.948; in the experiment with RAF265 (1 µM), 0.872; with IPA-3 (0.2 µM), 1.08; with IPA-3 (0.6325 µM), 0.932. Further, the relative viability stood at 0.967 with IPA-3 (2 µM); 0.916 with IPA-3 (6.325 µM); 1.09 with IPA-3 (20 µM); 0.904 with Doramapimod (0.02 µM); 0.934 with Doramapimod (0.06325 µM); 0.956 with Doramapimod (0.2 µM). Further, the relative viability with Doramapimod (0.6325 µM) was found to be 0.782; with Doramapimod (2 µM), 0.841.
